Reference: the METLIN SMRT retention time set (Domingo-Almenara et al. 2019)

Test: gradient 5% acetonitrile 3 min, to 50% in 2 min, to 85% in 15 min, held 3 min, 100 µL/min
Settings: column: Zorbax Extend-C18 2.1 x 50 mm; eluents: water / acetonitrile, 0.1% formic acid
How it was run: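 The system's dead and dwell volumes were 40 μL and 900 μL, with a Zorbax Extend-C18 column (2.1 × 50 mm, 1.8 μm) run at 100 μL/min in water and acetonitrile containing 0.1% formic acid each. Pure standards were analyzed in mixtures of ~100 molecules by HPLC–quadrupole time-of-flight mass spectrometry in positive and negative ionization mode. Retention time was assigned from computationally picked, manually inspected adduct peaks.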

RP-LC retention time [s] | Structure (SMILES)
724 | Cc1cc(C(=O)Nc2cccn3c(C4CCC4)nnc23)no1
646 | Cc1nc(Nc2ccc(NC(=O)COc3ccc(Cl)cc3)cc2)cc(-n2ccnc2)n1
784 | CCn1nccc1C(=O)NCCn1c(=O)n(Cc2cccc(C)c2)c2cccnc21
1130 | CCOc1ccccc1-c1nc(C2CC(=O)N(c3ccc(CC)cc3)C2)no1 (configuration not stated)
594 | c1cc(-c2nc(-c3ccnc(N4CCCC4)c3)no2)ccn1
619 | CCCC(=O)Nc1ccc(S(=O)(=O)NCC(C)(O)COC)cc1 (configuration not stated)
705 | Cc1ccc(Cl)cc1N1CCN(C(=O)c2c(C)oc3c2C2=NCCN2C=N3)CC1
898 | CN1C(=O)c2cc(C(=O)Nc3ccc(Cl)cc3)nn2CC1(C)C(=O)NC1CCCCC1 (configuration not stated)
700 | COCCNc1ncc(C(=O)O)c(-c2cccc(C)c2)n1
664 | CN1CCN(C(=O)Cn2cccc2-c2nc(-c3ccccc3)cs2)CC1
1170 | CCc1cc(-c2csc(S(=O)(=O)N3CC=C(c4ccccc4)CC3)c2)on1
573 | Cn1c(CNC(=O)C2(C)CCCCC(=O)N2)nc2ccccc21 (configuration not stated)
755 | COc1ccc(C(=O)N2CCC3(CC2)N=C(c2ccccc2)NO3)c(OC)c1
695 | Cn1c(C2CCN(C(=O)Nc3cc(F)ccc3F)CC2)cc(=O)n2nccc12
578 | COc1ccc(CC(=O)N2CCN(c3cc(C)n4c(C)nnc4n3)CC2)cc1OC
898 | COC(=O)c1ccccc1NC(=O)Cn1c(=O)c(CCC(=O)NC2CCCC2)nc2ccccc21
794 | COc1ccc(NC(=O)N2CCc3cn(C)c4cccc(c34)C2)cc1OC
862 | CC(C)NC(=O)N1CCCC(c2cccc(C(=O)NCc3ccc(F)cc3F)c2)C1 (configuration not stated)
779 | CCC(=O)N1CCc2cc(N3CC(C(=O)Nc4ccc(OC)c(Cl)c4)CC3=O)ccc21 (configuration not stated)
561 | O=C(c1ccc2c(c1)OCO2)N1CCC(N2C[C@H]3C[C@H](C2)[C@H]2CCCC(=O)N2C3)CC1
645 | Cc1noc(-c2ccnc(-n3ncc(C(=O)N4CCN(Cc5ccccc5)CC4)c3C)c2)n1
1180 | Cc1ccc(OCc2nc(-c3ccc(N4CCSCC4)nc3)no2)cc1

RP-LC retention time [s] | Structure (SMILES)
708 | Brc1ccc(-c2ccc(CNc3ncn[nH]3)o2)cc1
682 | O=C(c1cc(-c2ccccc2)n(C2CCS(=O)(=O)C2)n1)N1CCCC1 (configuration not stated)
628 | O=C(COc1ccccc1Cl)N1CCN(c2cc(-c3ccccc3)ncn2)CC1
838 | CCc1ccccc1NS(=O)(=O)c1cc(-c2c(CC)noc2NC(C)=O)ccc1OC
865 | Cc1ccc(CNC(=O)C2(C)CN(S(C)(=O)=O)CC(=O)N2CCC(C)C)cc1 (configuration not stated)
842 | Cc1ccc(NC(=O)C2CCc3sc(C(=O)N4CCOCC4)cc3C2)cc1 (configuration not stated)
918 | CC(C)NC(=O)c1ccc(C(C)C)cc1
1060 | CC(NC(=O)C1CCCN(c2nccnc2Sc2ccccc2)C1)c1ccccc1 (configuration not stated)
750 | Cc1ccc(-n2nc(SC(C)C(=O)NC3CC3)ccc2=O)cc1Cl (configuration not stated)
1120 | O=C(NC1CCCCCC1)c1nnn(Cc2ccccc2)c1-n1cccc1
766 | Cn1cc(-c2nnc(SCC(=O)N3CCc4ccccc43)n2C)c(-c2ccccc2)n1
573 | O=C(Cc1cc(-c2ccc3c(c2)OCO3)on1)NCc1cccnc1
651 | COc1ccc(N2CCN(C(=O)C3CCN(S(=O)(=O)c4cn(C)c(C)n4)CC3)CC2)cc1
790 | CC(C)C(=O)Nc1cc2c(cc1S(=O)(=O)c1ccc(F)cc1)n(C)c(=O)n2C
826 | COc1ccccc1CNc1c(-c2ccc(OC(C)C)cc2)nc2ncccn12
939 | CSc1cccc(NC(=O)Cn2cccc(-c3nc(-c4ccc(F)cc4)no3)c2=O)c1
1140 | Cc1ccc(-c2nc(-c3ccc4nnc(C)n4c3)no2)c(C)c1
820 | COc1ccc(NC(=O)C2CC(=O)N(CCc3c[nH]c4ccc(Cl)cc34)C2)c(OC)c1 (configuration not stated)
692 | NC(=O)C1(c2ccccc2Cl)CC1
813 | Cc1ccc(N2CCC(NC(=O)c3cccc(C#N)c3)C2=O)cc1 (configuration not stated)
877 | Cc1cc(-c2nnc(-c3ccc(F)cc3)o2)c(C)n1CC(=O)N1CCCCC1
835 | Cc1ccc(-n2nnnc2CNC(=O)c2cc(Br)ccc2Cl)cc1

RP-LC retention time [s] | Structure (SMILES)
884 | CCCC(C)C(=O)N1CCCN(C2=NS(=O)(=O)C(c3ccc(C)cc3)=C2C)CC1 (configuration not stated)
789 | Cc1cccc(NC(=O)Nc2ccc(-c3cccc4[nH]nc(N)c34)cc2)c1
816 | COC[C@@H]1CN(C(=O)c2occc2C)C[C@H]1c1nc(C2CC2)no1
550 | NCCc1nc(-c2ccccc2)cs1
623 | CC(C)NC(=O)N1CCCC(c2cccc(C(=O)NCCCN3CCCCC3)c2)C1 (configuration not stated)
964 | CCc1nc(OCC(=O)Nc2cc(Cl)ccc2Cl)c2ccccc2n1
646 | O=C(NCCCN1CCOCC1)C1c2ccccc2C(=O)N(C2CCCC2)C1c1cccs1 (configuration not stated)
759 | CCOc1cc(C(=O)Nc2ccc(-c3cn4cccnc4n3)cc2)cc(OCC)c1OCC
948 | O=C(Nc1cc(F)ccc1F)N1CCC(CCNC(=O)C2(c3ccccc3)CC2)CC1
881 | COc1ccc(S(=O)(=O)N2CCC(n3cnc4c(C)cccc4c3=O)CC2)cc1OC
661 | COc1ccc2c(C)c(CC(=O)N3CCC(C(N)=O)CC3)c(=O)oc2c1C
924 | CCc1nc2c(NC(=O)c3ccc(F)c(Cl)c3)cccn2n1
881 | CCOC(=O)C1=C(O)C(=O)N(c2ccccc2)C1c1ccccc1 (configuration not stated)
652 | CCOc1ccc(CC(=O)NCC(=O)Nc2nc3ccccc3[nH]2)cc1OCC
900 | COc1ccc(C2SCCN2S(=O)(=O)c2ccc(C)c([N+](=O)[O-])c2)cc1OC (configuration not stated)
944 | Cc1ccc(-c2ccnc(SCC(=O)NCc3ccccc3)n2)cc1C
848 | CCOC(=O)c1sc(NC(C)=O)nc1-c1ccccc1
735 | O=C(c1ccc(F)c(Cl)c1)N1CCC(n2c(-c3ccoc3)nc3cccnc32)C1 (configuration not stated)
1280 | Cn1nccc1C(=O)Nc1sccc1-c1nc2ccccc2s1
617 | CCC1CN(C(=O)N2CCC(C(=O)NCCCN3CCN(C)CC3)CC2)c2cc(C)ccc2O1 (configuration not stated)
1000 | Cc1nc(-c2csc(S(=O)(=O)N3CCCC(C(=O)NC4CCCCCC4)C3)c2)no1 (configuration not stated)

Structure (SMILES) | RP-LC retention time [s]
COc1ccc2c(c1)C1(CCN(C(=O)CC(C)(C)C)C1)C(=O)N2 (configuration not stated) | 725
CC(CC(C#N)(c1ccccc1)c1ccccc1)N1CCCCC1 (configuration not stated) | 780
